Oligonucleotides are written 5' to 3', each unit as a sugar letter and its base; * is a phosphorothioate linkage, no mark a phosphodiester; rarer units and linkages stand in square brackets, end groups in braces. Plain capitals give the bases only. d = 2'-deoxy (DNA)
Tests used:
[1] = Hydrodynamic diameter and zeta potential of materials and complexes (Example 3); assay type: physicochemical; details: pH 7; ISIS 5132 200 ug/ml, BSA 1 mg/ml, PDMAEMA 0.21 mg/ml
Experimental: The resulting conjugates were dialysed in 0.05 M PBS (pH5) for 12 h by changing solvent every 2 h. […] All the conditions were kept consistent to the corresponding oligonucleotide samples. In addition, the oligonucleotide transfection efficiency of the PEGMEMA-PDMAEAM cationic block copolymer was investigated. The same protocol was adopted to make the polyion complex micelles from this polymer solution.
The condensation of the oligonucleotide was therefore carried out when the conjugate solution was at pH5 and the oligonucleotide was dissolved in MilliQ water. The albumin-polymer conjugates with a pH of 5 was then slowly added to the solutions of ISIS 5132 with the concentration of 200 μg/ml (ζ=−29.87 mV at pH7). […] After the complex micelle was stable, the system was brought back to pH7. There are several reasons for this: to reduce the aggregation of the micelle, to protect the oligonucleotide and to keep the neutral environment for cells in the afterward cytotoxicity assays.

[2] = DLS hydrodynamic diameter of BSA conjugated copolymer (Example 2); assay type: physicochemical; details: for PDi: 0.1M PBS pH 7, DLS
Experimental: ^1H-NMR spectra were acquired to characterised compounds using CDCl3 or d-DMSO with a 300 MHz spectrometer. Thermogravimetric analysis (TGA) was carried out using TG5000 to quantify the amount of platinum conjugated to the copolymers. The sample (≤5 mg) was placed on a thermo-balance and heated from room temperature to 600° C. at 20° C./min, and held for an isothermal period of 60 minutes under nitrogen atmosphere. Diameter size of copolymers in 0.1M PBS buffer pH 7.0 was measured using a Malvern dynamic light scattering instrument (DLS) in a disposable plastic cuvette (1 cm path length). Fluorescence measurements were performed on Agilent Cary Eclipse Fluorescence Spectrometer using a 1 cm quartz cuvette. Fluorescence spectra were recorded between 400-800 nm at λex=495 nm, λem=520 nm with entrance and exit slit width of […]. SDS-PAGE was performed using standard techniques using a premixed electrophoresis buffer which contains 25 mM Tris, 192 mM glycine and 0.1% SDS (Tris/Glycine/SDS buffer) to determine the conjugation efficiency between the BSA-FITC and the copolymer. Samples were prepared for electrophoresis without the use of a reducing agent. The samples were mixed with bromophenol blue (0.01% w/v) solution as the marker. The samples were resolved through a 10% polyacrylamide gel which was performed using a BioRad Mini-Protean II electrophoresis setup at a constant voltage (150 V). The samples were stained using Colloidal Blue Coomassie G-250 (Bio-Rad), and left overnight. Gel images were recorded using a Bio-Rad GS-800 calibrated densitometer. Native BSA was used as a control.
The size and shape of the BSA conjugated copolymer in PBS solution was investigated using DLS and TEM.

[3] = tested on: prostate cancer cell lines; assay: Cytotoxicity against three prostate cancer cell lines (Example 4); assay type: cell-based; details: chosen concentration range
Experimental: The product was tested for particle size and cytotoxicity against prostate cancer.

cancer cells = details: most effective free Curcumin study results; read-out: free Curcumin concentration to bring about 50% cell death; cited from earlier work
[4] = Nile Red encapsulation efficiency by Fluorescence Spectroscopy; assay type: physicochemical; details: preliminary polymer-protein aggregates loaded with Nile Red
From the text: After the formation of polymer-protein Curcumin carrying micelles of a desirable size, there was a clear need to determine the amount of Curcumin actually encapsulated. Preliminary aggregates were loaded with Nile Red dye to act as a makeshift drug and analysed by Fluorescence Spectroscopy. After comparison to a Calibration curve established from analysis of Nile Red concentrations dissolved in DMSO solvent, the intensity was backcalculated to yield a 30.4% encapsulation efficiency.

In the case of “ISIS 5132: 20-base antisense phosphorothioate oligodeoxyribonucleotide: 5′TCCCGCCTGTGACATGCATT3′ (DNA dT*dC*dC*dC*dG*dC*dC*dT*dG*dT*dG*dA*dC*dA*dT*dG*dC*dA*dT*dT)”, the Dh [1] is reported as 0-107 nm and the Zeta potential [1] is reported as −29.87 mV.
With P(HPMA13-co-[(AC-DAP)9-Pt8]) the PDi [2] was 0.14.
In the case of BSA-FITC, the “Dh number (d/nm)” value ([2]; 0.1M PBS pH 7, 25° C.) is reported as 7.44 nm and the PDi [2] is reported as 0.58.
For COc1cc(/C=C/C(=O)CC(=O)/C=C/c2ccc(O)c(OC)c2)ccc1O [Curcumin], the toxicity [3] is given as “only negligible toxicity” and the IC50 (cancer cells) is given as 10 µM.
In the case of CCN(CC)c1ccc2nc3c4ccccc4c(=O)cc-3oc2c1 [Nile Red], the “Nile Red encapsulation efficiency” value [4] is reported as 30.4%.
